The numbers were not newly measured in patent US6440947B1, “Method for treating occlusive peripheral vascular disease and coronary disease” (The Regents of the University of California, priority 1997, dated 2002), which cites them from elsewhere.

The subject of data set [1] is human umbilical vein endothelial cell cultures. Particulars: physiological concentrations.

In the case of `Nc1ncnc2c1ncn2[C@@H]1O[C@H](CO)[C@@H](O)[C@H]1O` [Adenosine, adenosine], the half-life in vivo entry is reported as “less than 30 seconds”. Further, the “effect on endothelial cell proliferation” value in data set [1] was “stimulates proliferation”.
